Structures can show the parent of a compound that is named as a salt.
Assays:
[1] = biological target: T1, HBV polymerase (Hepatitis B virus genotype D subtype ayw, UniProt P03156); experiment: Inhibitory activities against HBV polymerase (reverse transcriptase activity) in vitro; type: biochemical; details: read-out: Inhibitory activity of HBV-RT (%); for inhibition at 0.01 µg/mL: 0.01 μg/ml; for inhibition at 0.1 µg/mL: 0.1 μg/ml; for inhibition at 1 µg/mL: 1 μg/ml
T1 construct: made in house; host or cells: E. coli
Excerpt: Experiment 1:Inhibitory Activities Against HBV Polymerase in vitro
Recently, the inventors of the present invention have produced a recombinant HBV polymerase that is expressed from E.coli transformant, measured its enzyme activity and filed patent applications threrof [Korean Pat. Appl. Nos. 94-3918 and 96-33998].
The inventors have also established a method of measuring the reverse transcriptase activity of HBV polymerase in vitro. The fundamental principle is the same as the ELISA method, and after reacting the substrate with biotin- and DIG-modified nucleotide, a method of recognizing the polymerized substrate as anti-DIG antibody with peroxidase was used.
20 μl of HBV polymerase, 20 μl of reaction mixture and 20 μl of test compound was mixed and reacted at 14° C.~30° C. for 18~24 hours. Then, the inhibitory effect of the test compound against reverse transcriptase activity in the HBV polymerase was examined, compared with the results of control tests without the test compound.

[2] = biological target: T2, HIV reverse transcriptase (Human immunodeficiency virus type 1 group M subtype B, UniProt P04585); experiment: In vitro inhibition test against HIV reverse transcriptase; type: biochemical; details: read-out: Inhibitory activity of HIV-RT (%); for inhibition at 0.1 µg/mL: 0.1 μg/ml; for inhibition at 1 µg/mL: 1 μg/ml
T2 construct: purchased Boehringer Mannheim
Experimental: Experiment 2: The in vitro Inhibition Test Against HIV Reverse Transcriptase
The inhibitory activity in vitro was measured using a non-radioactive reverse transcriptase assay Kit (Boehringer Mannheim).
At first, 20 μl(40 ng) of HIV-RT was added to the wells, coated with streptavidin and with the addition of 20 μl reaction mixture containing template/primer hybrid poly(A)/oligo(dT)15 and DIG-(digoxigenin)-dUTP, biotin-dUTP and TTP, 20 μl of test compound was added and reacted at 37° C. for 1 hour. The control without test compound was used for the comparison of related activity. Since DNA containing nucleotide labeled with digoxigenin and biotine was prepared by the action of HIV-RT, it was combined with streptavidin coated at the bottom of the wells. After the reaction was completed, remaining impurities were removed by washing each well with 250 μl buffer solution (pH 7.0) for 30 seconds 5 times and with the addition of 200 μl anti-DIG-POD antibody, the mixture was reacted at 37° C. for 1 hour. For the removal of remaining impurities again, the reacting solution was washed with a buffer solution and with the addition of 200 μl ABTS™ each, a substrate of POD(peroxidase), the solution was reacted at room temperature for 30 minutes. The absorbance was read by ELISA reader at 405 nm for the assay of reverse transcriptase activity and its inhibition activity.

T1 sequence (P03156 whole entry): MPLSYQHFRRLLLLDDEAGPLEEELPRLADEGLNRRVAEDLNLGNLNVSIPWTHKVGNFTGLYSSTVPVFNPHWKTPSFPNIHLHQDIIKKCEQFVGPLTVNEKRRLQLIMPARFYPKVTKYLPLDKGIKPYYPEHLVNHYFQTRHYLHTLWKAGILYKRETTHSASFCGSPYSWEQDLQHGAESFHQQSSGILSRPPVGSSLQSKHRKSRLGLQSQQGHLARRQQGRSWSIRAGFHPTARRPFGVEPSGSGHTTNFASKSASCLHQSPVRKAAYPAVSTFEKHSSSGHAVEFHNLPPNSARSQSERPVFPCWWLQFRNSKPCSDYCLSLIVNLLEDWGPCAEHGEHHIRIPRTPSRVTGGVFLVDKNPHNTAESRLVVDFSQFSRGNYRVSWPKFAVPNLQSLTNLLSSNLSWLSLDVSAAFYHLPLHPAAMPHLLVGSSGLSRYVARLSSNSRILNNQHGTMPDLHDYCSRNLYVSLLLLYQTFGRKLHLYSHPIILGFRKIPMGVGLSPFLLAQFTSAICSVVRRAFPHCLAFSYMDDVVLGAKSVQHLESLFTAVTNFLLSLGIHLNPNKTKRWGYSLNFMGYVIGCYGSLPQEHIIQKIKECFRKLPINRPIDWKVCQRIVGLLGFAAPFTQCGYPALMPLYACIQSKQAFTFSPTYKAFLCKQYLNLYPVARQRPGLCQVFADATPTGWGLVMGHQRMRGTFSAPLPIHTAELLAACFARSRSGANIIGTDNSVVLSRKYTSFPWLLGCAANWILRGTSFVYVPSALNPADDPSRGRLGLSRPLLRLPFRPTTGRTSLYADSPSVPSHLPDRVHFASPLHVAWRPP

Q: With `CCN(CC)C(=O)c1ccc(C(=O)N2CCN(c3ncccc3NC(C)C)CC2)nc1` [Exam. 33, 5-(N,N-diethylcarbamoyl)-2-[1-[3-(isopropylamino)-2-pyridyl]piperazin-4-yl-carbonyl]pyridine] as the molecule, how does the inhibition at 0.01 µg/mL [1] read?
A: 20%

Q: What about the inhibition at 0.1 µg/mL [1] of the same molecule?
A: 62%

Q: And the inhibition at 1 µg/mL [1]?
A: 73%

Q: And the inhibition at 0.1 µg/mL [2]?
A: 64%

Q: What about the inhibition at 1 µg/mL [2] of the same molecule?
A: 80%

Q: For `CC(C)Nc1cccnc1N1CCN(C(=O)c2ccc(C(=O)NC3CC3)cn2)CC1` [Exam. 35, 5-(N-cyclopropylcarbamoyl)-2-[1-[3-(isopropylamino)-2-pyridyl]piperazin-4-yl-carbonyl]pyridine], which inhibition at 0.01 µg/mL [1] is on record?
A: 5%

Q: What about the inhibition at 0.1 µg/mL [1] of the same molecule?
A: 51%

Q: What about the inhibition at 1 µg/mL [1] of the same molecule?
A: 62%

Q: And the inhibition at 0.1 µg/mL [2]?
A: 30%

Q: And the inhibition at 1 µg/mL [2]?
A: 68%

Q: Which inhibition at 0.01 µg/mL [1] does the source give for `CC(C)CNc1cccnc1N1CCN(C(=O)c2ccc(C(=O)NC3CC3)cn2)CC1` [Exam. 36] here?
A: 60%

Q: And the inhibition at 0.1 µg/mL [1]?
A: 71%

Q: What about the inhibition at 1 µg/mL [1] of the same molecule?
A: 87%

Q: What about the inhibition at 0.1 µg/mL [2] of the same molecule?
A: 60%

Q: What about the inhibition at 1 µg/mL [2] of the same molecule?
A: 73%

Q: What does the source list for `CC(C)Nc1cccnc1N1CCN(C(=O)c2ccc(C(=O)NC3CCCC3)cn2)CC1` [Exam. 37, 5-(N-cyclopentylcarbamoyl)-2-[1-[3-(isopropylamino)-2-pyridyl]piperazin-4-yl-carbonyl]pyridine]?
A: inhibition at 0.01 µg/mL [1]: 39%; inhibition at 0.1 µg/mL [1]: 65%; inhibition at 1 µg/mL [1]: 75%; inhibition at 0.1 µg/mL [2]: 25%; inhibition at 1 µg/mL [2]: 51%

Q: Which results are given for `COCCNC(=O)c1ccc(C(=O)N2CCN(c3ncccc3NC(C)C)CC2)nc1` [Exam. 39, 2-[1-[3-(isopropylamino)-2-pyridyl]piperazin-4-yl-carbonyl]-5-[N-(2-methoxyethyl)carbamoyl]pyridine]?
A: inhibition at 0.01 µg/mL [1]: 60%; inhibition at 0.1 µg/mL [1]: 68%; inhibition at 1 µg/mL [1]: 80%; inhibition at 0.1 µg/mL [2]: 65%; inhibition at 1 µg/mL [2]: 72%

Q: How did the inhibition at 0.01 µg/mL [1] turn out when `CCNc1cccnc1N1CCN(C(=O)c2ccc(C(=O)NCCOC)cn2)CC1` [Exam. 40, 2-[1-[3-(ethylamino)-2-pyridyl]piperazin-4-yl-carbonyl]-5-[N-(2-methoxyethyl)carbamoyl]-pyridine] was run?
A: 36%

Q: What about the inhibition at 0.1 µg/mL [1] of the same molecule?
A: 57%

Q: And the inhibition at 1 µg/mL [1]?
A: 75%

Q: And the inhibition at 0.1 µg/mL [2]?
A: 52%

Q: And the inhibition at 1 µg/mL [2]?
A: 70%

Q: How did the inhibition at 0.01 µg/mL [1] turn out when `COCCNC(=O)c1ccc(C(=O)N2CCN(c3ncccc3NCC(C)C)CC2)nc1` [Exam. 41, 2-[1-[3-(isobutylamino)-2-pyridyl]piperazin-4-yl-carbonyl]-5-[N-(2-methoxyethyl)carbamoyl]-pyridine] was run?
A: 52%

Q: And the inhibition at 0.1 µg/mL [1]?
A: 70%

Q: What about the inhibition at 1 µg/mL [1] of the same molecule?
A: 85%

Q: What about the inhibition at 0.1 µg/mL [2] of the same molecule?
A: 34%

Q: What about the inhibition at 1 µg/mL [2] of the same molecule?
A: 55%

Q: How did the inhibition at 0.01 µg/mL [1] turn out when `COCCN(CCOC)C(=O)c1ccc(C(=O)N2CCN(c3ncccc3NC(C)C)CC2)nc1` [Exam. 42, 5-[N,N-bis(2-methoxyethyl)carbamoyl]-2-[1-[3-(isopropylamino)-2-pyridyl]piperazin-4-yl-carbonyl]pyridine.HCl] was run?
A: 15%

Q: What about the inhibition at 0.1 µg/mL [1] of the same molecule?
A: 52%

Q: And the inhibition at 1 µg/mL [1]?
A: 70%

Q: And the inhibition at 0.1 µg/mL [2]?
A: 20%

Q: And the inhibition at 1 µg/mL [2]?
A: 54%

Q: `COCC(C)NC(=O)c1ccc(C(=O)N2CCN(c3ncccc3NC(C)C)CC2)nc1` (stereo not drawn) [Exam. 43, 2-[1-[3-(isopropylamino)-2-pyridyl]piperazin-4-yl-carbonyl]-5-[N-(2-methoxy-1-methylethyl)carbamoyl]pyridine] was tested. Which inhibition at 0.01 µg/mL [1] did it give?
A: 50%

Q: And the inhibition at 0.1 µg/mL [1]?
A: 61%

Q: What about the inhibition at 1 µg/mL [1] of the same molecule?
A: 68%

Q: And the inhibition at 0.1 µg/mL [2]?
A: 44%

Q: And the inhibition at 1 µg/mL [2]?
A: 56%

Q: Which results are given for `COCCCNC(=O)c1ccc(C(=O)N2CCN(c3ncccc3NC(C)C)CC2)nc1` [Exam. 45, 2-[1-[3-(isopropylamino)-2-pyridyl]piperazin-4-yl-carbonyl]-5-[N-(3-methoxypropyl)carbamoyl]pyridine]?
A: inhibition at 0.01 µg/mL [1]: 28%; inhibition at 0.1 µg/mL [1]: 53%; inhibition at 1 µg/mL [1]: 63%; inhibition at 0.1 µg/mL [2]: 47%; inhibition at 1 µg/mL [2]: 68%

Q: For `COCCCNC(=O)c1ccc(C(=O)N2CCN(c3ncccc3NCC(C)C)CC2)nc1` [Exam. 47, 2-[1-[3-(isobutylamino)-2-pyridyl]piperazin-4-yl-carbonyl]-5-[N-(3-methoxypropyl)carbamoyl]pyridine], which inhibition at 0.01 µg/mL [1] is on record?
A: 20%

Q: What about the inhibition at 0.1 µg/mL [1] of the same molecule?
A: 51%

Q: What about the inhibition at 1 µg/mL [1] of the same molecule?
A: 72%

Q: What about the inhibition at 0.1 µg/mL [2] of the same molecule?
A: 53%

Q: What about the inhibition at 1 µg/mL [2] of the same molecule?
A: 69%

Q: What does the source list for `CC(C)Nc1cccnc1N1CCN(C(=O)c2ccc(C(=O)NCCOCCO)cn2)CC1` [Exam. 48, 5-[N-[2-(2-hydroxyethoxy)ethyl]carbamoyl]-2-[1-[3-(isopropylamino)-2-pyridyl]piperazin-4-yl-carbonyl]pyridine]?
A: inhibition at 0.01 µg/mL [1]: 52%; inhibition at 0.1 µg/mL [1]: 66%; inhibition at 1 µg/mL [1]: 79%; inhibition at 0.1 µg/mL [2]: 41%; inhibition at 1 µg/mL [2]: 52%

Q: With `COC(CN(C)C(=O)c1ccc(C(=O)N2CCN(c3ncccc3NC(C)C)CC2)nc1)OC` [Exam. 50, 5-[N-(2,2-dimethoxyethyl)-N-methylcarbamoyl]-2-[1-[3-(isopropylamino)-2-pyridyl]piperazin-4-yl-carbonyl]pyridine.HCl] as the molecule, how does the inhibition at 0.01 µg/mL [1] read?
A: 15%

Q: What about the inhibition at 0.1 µg/mL [1] of the same molecule?
A: 51%

Q: And the inhibition at 1 µg/mL [1]?
A: 60%

Q: What about the inhibition at 0.1 µg/mL [2] of the same molecule?
A: 40%

Q: What about the inhibition at 1 µg/mL [2] of the same molecule?
A: 55%

Q: Which inhibition at 0.01 µg/mL [1] does the source give for `COC(CNC(=O)c1ccc(C(=O)N2CCN(c3ncccc3NC(C)C)CC2)nc1)OC` [Exam. 51, 5-[N-(2,2-dimethoxyethyl)carbamoyl]-2-[1-[3-(isopropylamino)-2-pyridyl]piperazin-4-yl-carbonyl]pyridine] here?
A: 57%

Q: What about the inhibition at 0.1 µg/mL [1] of the same molecule?
A: 65%

Q: And the inhibition at 1 µg/mL [1]?
A: 87%

Q: And the inhibition at 0.1 µg/mL [2]?
A: 30%

Q: And the inhibition at 1 µg/mL [2]?
A: 51%

Q: With `CC(C)Nc1cccnc1N1CCN(C(=O)c2ccc(C(=O)N(C)CC3OCCO3)cn2)CC1` [Exam. 52, 5-[N-[(1,3-Dioxolan-2-yl)methyl]-N-methylcarbamoyl]-2-[1-[3-(isopropylamino)-2-pyridyl]piperazin-4-yl-carbonyl]pyridine] as the molecule, how does the inhibition at 0.01 µg/mL [1] read?
A: 39%

Q: And the inhibition at 0.1 µg/mL [1]?
A: 60%

Q: And the inhibition at 1 µg/mL [1]?
A: 76%

Q: What about the inhibition at 0.1 µg/mL [2] of the same molecule?
A: 50%

Q: And the inhibition at 1 µg/mL [2]?
A: 62%

Q: Which results are given for `CC(C)Nc1cccnc1N1CCN(C(=O)c2ccc(C(=O)NCC3CCCO3)cn2)CC1` (stereo not drawn) [Exam. 53, 2-[1-[3-(isopropylamino)-2-pyridyl]piperazin-4-yl-carbonyl]-5-[N-(tetrahydrofuran-2-yl-methyl)carbamoyl]pyridine]?
A: inhibition at 0.01 µg/mL [1]: 52%; inhibition at 0.1 µg/mL [1]: 60%; inhibition at 1 µg/mL [1]: 74%; inhibition at 0.1 µg/mL [2]: 59%; inhibition at 1 µg/mL [2]: 78%

Q: `CC(C)Nc1cccnc1N1CCN(C(=O)c2ccc(C(=O)NC3CCOC3=O)cn2)CC1` (stereo not drawn) [Exam. 55, 2-[1-[3-(Isopropylamino)-2-pyridyl]piperazin-4-yl-carbonyl]-5-[N-(tetrahydro-2-fuanon-3-yl)carbamoyl]pyridine] was tested. Which inhibition at 0.01 µg/mL [1] did it give?
A: 55%

Q: What about the inhibition at 0.1 µg/mL [1] of the same molecule?
A: 69%

Q: And the inhibition at 1 µg/mL [1]?
A: 79%

Q: What about the inhibition at 0.1 µg/mL [2] of the same molecule?
A: 31%

Q: And the inhibition at 1 µg/mL [2]?
A: 62%

Q: `Nc1cccnc1N1CCN(C(=O)c2ccc(C(=O)NC3CCOC3=O)cn2)CC1` (stereo not drawn) [Exam. 56, 2-[1-(3-amino-2-pyridyl)piperazin-4-yl-carbonyl]-5-[N-(tetrahydro-2-furanon-3-yl)carbamoyl]pyridine] was tested. Which inhibition at 0.01 µg/mL [1] did it give?
A: 65%

Q: What about the inhibition at 0.1 µg/mL [1] of the same molecule?
A: 70%

Q: And the inhibition at 1 µg/mL [1]?
A: 82%

Q: What about the inhibition at 0.1 µg/mL [2] of the same molecule?
A: 45%

Q: What about the inhibition at 1 µg/mL [2] of the same molecule?
A: 74%

From patent US6306860A, “2,5-pyridinedicarboxylic acid derivatives” (Dong Wha Pharm. Inc. Co., Ltd., priority 1998, dated 2001)
